Assay results: patent US20250270212A1, “CHIMERIC COMPOUNDS USEFUL IN TREATING DISEASES” (Padarn Therapeutics, Inc., priority 2021, published 2025)

Key:
recombinant Wee1 protein = recombinant Wee1 protein (Homo sapiens (Human), UniProt P30291); experiment: Wee1 enzymatic activity inhibition, ADP-Glo luminescence assay; format: biochemical; conditions: recombinant Wee1, PolyE4Y1 substrate, 1 h room temperature
Method: Example A. Primary Assay Used to Determine Potency of Wee1 Enzymatic Activity Inhibition
Compound activity was determined using recombinant Wee1 protein (BPS, Cat #40412) and PolyE4Y1 Substrate (Poly(Glu,Tyr) sodium salt, Sigma, Cat #P0275-25MG) in an in vitro enzymatic reaction. The enzymatic assay used to determine activity was a Luminescence assay using a Microplate Reader (BMG, ClarioStar Plus). The enzymatic reaction was carried out in assay buffer (40 mM TRIS-HCl pH 7.4-7.6, 20 mM MgCl2, 0.05 mM DTT, 0.1 mg/ml BSA, 5 mM MnCl2). The compounds were dispensed on a 384 well Diamond Well Plate (Axigen, Cat #P-384-120SQ-C-S) using the Biomek FX liquid handling system at 100× solutions of compounds in DMSO. 2×Wee1-PolyE4Y1 mix (final concentration 0.85 ng/μl of Wee1 and 0.2 μg/μl of PolyE4Y1) was prepared in 1× Assay buffer and 5.5 μl of mixture per well was added into 384w white Reaction plate with NBS (Corning, Cat #4513). 5.5 μl of PolyE4Y1 substrate w/o Wee1 in 1× buffer was used for negative control. Plates were centrifuged for 1 min at 100 g. Next step the Compounds were added to Reaction plate using Biomek station via following steps: 1 μl of 100× compounds (in DMSO) were mixed thoroughly with 49 μl of 2×10 μM ATP in Assay Buffer, then 5.5 μl of this mixture was added to Reaction plate with 5.5 μl of Wee1-PolyE4Y1 mix. Plates were centrifuged for 1 min at 100 g and incubated for 1 h at room temperature. Next 3 μL of ADP-Glo reagent (Promega, ADP-Glo™ Kinase Assay, Cat #V9102) per well was added. Plates were incubated for 30 minutes at room temperature. Then 6 μL of Kinase detection reagent (Promega, ADP-Glo™ Kinase Assay, Cat #V9102) per well was added and the Luminescence was measured using Microplate Reader. The % inhibition was then used to calculate the IC50 values. The IC50 values are shown in Table A, wherein “A” corresponds to IC50<0.01 μM, “B” corresponds to 0.01 μM≤IC50<0.1 μM, “C” 0.1 μM≤IC50<1 μM, and “D” corresponds to […].

[1] = target: recombinant PARP1 (AA662-1014) protein (Homo sapiens (Human), UniProt P09874); experiment: Tracer displacement fluorescence polarization assay; conditions: displacement of AlexaFluor488 tracer from NAD+-binding site, PARP1 25 nM
Method: Example B. Tracer Displacement Fluorescence Polarization Assays
Displacement of AlexaFlour488 marked tracer from the NAD+-binding site of recombinant PARP1 (AA662-1014) protein (OriGene, Cat #: AR09368PU-L) was measured in vitro using Fluorescence polarization assay. The reaction was carried out in assay buffer (50 mM TRIS-HCl pH 7.4-7.8, 150 mM NaCl, 10 mM MgCl2, 0.001% Triton-X). 2×PARP1 (final concentration 25 nM) was diluted in 1× Assay buffer and 10 μl of the solution per well was added into 384-well Black Non-Treated Reaction plate (Corning, Cat #4511). Plates were centrifuged for 1 min at 200 g. The compounds were prepared in a 384-well Diamond Well Plate (Axygen, Cat #P-384-120SQ-C-S) as 400× solutions in DMSO and were transferred into Reaction plate using the Biomek FX liquid handling system with intermediate dilution down to 10× working solution in assay buffer in a separate 384-well Diamond Well Plate (Axygen, Cat #P-384-120SQ-C-S) (2 μl per well). Plates were centrifuged for 1 min at 200 g and incubated for 15 min at room temperature in the dark. Then 8 μL per well of 2.5× Tracer AlexaFluor488 (final concentration 1 nM) diluted in 1× Assay buffer was added into Reaction plate. 1× Assay buffer was used to make blank samples for instrument calculations. Plates were incubated for 30 minutes at room temperature in the dark. Fluorescence polarization was measured using Microplate Reader (BMG, ClarioStar Plus). The % tracer displacement was used to calculate the IC50 values. The IC50 values are shown in Table A, wherein “A” corresponds to IC50<0.01 μM, “B” corresponds to 0.01 μM≤IC50<0.1 μM, “C” 0.1 μM≤IC50<[…], and “D” corresponds to […].

recombinant Wee1 protein, sequence (P30291 whole entry): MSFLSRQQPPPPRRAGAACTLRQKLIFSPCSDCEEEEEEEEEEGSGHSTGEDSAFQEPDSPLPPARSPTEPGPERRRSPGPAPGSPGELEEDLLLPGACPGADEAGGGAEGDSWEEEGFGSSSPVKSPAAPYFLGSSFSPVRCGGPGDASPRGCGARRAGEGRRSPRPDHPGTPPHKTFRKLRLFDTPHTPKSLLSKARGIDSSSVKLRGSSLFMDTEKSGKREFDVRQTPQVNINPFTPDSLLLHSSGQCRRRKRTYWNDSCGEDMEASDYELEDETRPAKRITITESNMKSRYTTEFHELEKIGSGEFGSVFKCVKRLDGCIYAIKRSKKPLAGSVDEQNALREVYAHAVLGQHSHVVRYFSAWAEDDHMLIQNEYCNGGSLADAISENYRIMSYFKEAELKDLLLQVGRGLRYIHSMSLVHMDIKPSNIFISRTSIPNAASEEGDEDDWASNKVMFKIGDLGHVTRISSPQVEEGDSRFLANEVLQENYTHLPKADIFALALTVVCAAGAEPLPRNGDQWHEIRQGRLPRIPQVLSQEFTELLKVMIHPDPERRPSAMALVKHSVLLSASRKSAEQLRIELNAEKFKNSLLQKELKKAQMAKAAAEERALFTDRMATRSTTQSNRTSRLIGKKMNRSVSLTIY
recombinant PARP1 (AA662-1014) protein, sequence (P09874 662-1014): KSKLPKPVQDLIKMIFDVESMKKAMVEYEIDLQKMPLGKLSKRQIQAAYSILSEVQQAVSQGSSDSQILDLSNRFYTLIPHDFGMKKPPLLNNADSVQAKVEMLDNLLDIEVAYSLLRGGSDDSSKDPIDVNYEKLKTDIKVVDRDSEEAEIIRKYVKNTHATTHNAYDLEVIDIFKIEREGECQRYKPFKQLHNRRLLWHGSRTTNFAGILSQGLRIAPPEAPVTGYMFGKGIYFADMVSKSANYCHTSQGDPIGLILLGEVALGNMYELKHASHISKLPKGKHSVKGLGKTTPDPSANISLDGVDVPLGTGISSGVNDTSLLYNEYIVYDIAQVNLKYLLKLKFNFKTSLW

EC50 (recombinant Wee1 protein) [nM] | EC50 [1] [nM] | SMILES
10 to 100 | 100 to 1000 | C=CCn1c(=O)c2cnc(Nc3ccc(N4CCN(Cc5cc(Cc6n[nH]c(=O)c7ccccc67)ccc5F)CC4)cc3)nc2n1-c1cccc(C(C)(C)O)n1 [Compound 14, 4-[3-({4-[4-({2-Allyl-1-[6-(1-hydroxy-1-methylethyl)pyridin-2-yl]-3-oxo-2,3-dihydro-1H-pyrazolo[3,4-d]pyrimidin-6-yl}amino)phenyl]piperazin-1-yl}methyl)-4-fluorobenzyl]phthalazin-1(2H)-one]
10 to 100 | < 10 | Cn1c(=O)c2cnc(Nc3ccc(N4CCN(Cc5ccc(-c6[nH]c7cc(F)cc8c7c6CCNC8=O)cc5)CC4)cc3)nc2n1-c1ccccn1 [Compound 36, 8-Fluoro-2-{4-[(4-{4-[(2-methyl-3-oxo-1-pyridin-2-yl-2,3-dihydro-1H-pyrazolo[3,4-d]pyrimidin-6-yl)amino]phenyl}piperazin-1-yl)methyl]phenyl}-1,3,4,5-tetrahydro-6H-azepino[5,4,3-cd]indol-6-one]
100 to 1000 | 10 to 100 | Cn1c2nc(Nc3ccc(N4CCC(n5cc6cccc(C(N)=O)c6n5)CC4)cc3)ncc2c(=O)n1-c1ccccn1 [Compound 86]
100 to 1000 | < 10 | O=C(c1cc(Cc2n[nH]c(=O)c3ccccc23)ccc1F)N1CCN(c2ccc(Nc3ncc4c(=O)n(CCO)n(-c5ccccn5)c4n3)cc2)CC1 [Compound 15, 4-(4-Fluoro-3-{[4-(4-{[2-(2-hydroxyethyl)-3-oxo-1-pyridin-2-yl-2,3-dihydro-1H-pyrazolo[3,4-d]pyrimidin-6-yl]amino}phenyl)piperazin-1-yl]carbonyl}benzyl)phthalazin-1(2H)-one]
100 to 1000 | 10 to 100 | COCCn1c(=O)c2cnc(Nc3ccc(N4CCN(Cc5ccc(-c6[nH]c7cc(F)cc8c7c6CCNC8=O)cc5)CC4)cc3)nc2n1-c1ccccn1 [Compound 38, 8-Fluoro-2-(4-{[4-(4-{[2-(2-methoxyethyl)-3-oxo-1-pyridin-2-yl-2,3-dihydro-1H-pyrazolo[3,4-d]pyrimidin-6-yl]amino}phenyl)piperazin-1-yl]methyl}phenyl)-1,3,4,5-tetrahydro-6H-azepino[5,4,3-cd]indol-6-one]

Continued, compound first:

SMILES | EC50 (recombinant Wee1 protein) [nM] | EC50 [1] [nM]
Cn1c(=O)c2cnc(Nc3ccc(N4CCN(C(=O)c5cc(Cn6c(=O)[nH]c(=O)c7c(F)cccc76)ccc5F)CC4)cc3)nc2n1-c1ncccn1 [Compound 29, 5-Fluoro-1-{4-fluoro-3-[(4-{4-[(2-methyl-3-oxo-1-pyrimidin-2-yl-2,3-dihydro-1H-pyrazolo[3,4-d]pyrimidin-6-yl)amino]phenyl}piperazin-1-yl)carbonyl]benzyl}quinazoline-2,4(1H,3H)-dione] | 100 to 1000 | < 10
COCCn1c(=O)c2cnc(Nc3ccc(N4CCN(C(=O)c5cc(Cc6n[nH]c(=O)c7ccccc67)ccc5F)CC4)cc3)nc2n1-c1ccccn1 [Compound 9, 4-(4-Fluoro-3-{[4-(4-{[2-(2-methoxyethyl)-3-oxo-1-pyridin-2-yl-2,3-dihydro-1H-pyrazolo[3,4-d]pyrimidin-6-yl]amino}phenyl)piperazin-1-yl]carbonyl}benzyl)phthalazin-1(2H)-one] | 10 to 100 | < 10
Cn1c2nc(Nc3ccc(N4CCCC(c5nc6cccc(C(N)=O)c6[nH]5)C4)cc3)ncc2c(=O)n1-c1ccccn1 (stereo not drawn) [Compound 97] | 100 to 1000 | 10 to 100
Cn1c(=O)c2cnc(Nc3ccc(N4CCC(c5nc6cccc(C(N)=O)c6[nH]5)CC4)cc3)nc2n1-c1ccccn1 [Compound 95, 2-[1-[4-[[2-methyl-3-oxo-1-(2-pyridyl)pyrazolo[3,4-d]pyrimidin-6-yl]amino]phenyl]-4-piperidyl]-3H-benzimidazole-4-carboxamide] | 10 to 100 | 10 to 100
